Data taken from patent US20230285598A1, “SULFOXONIUM YLIDE DERIVATIVES AS PROBES FOR CYSTEINE PROTEASE” (Takeda Pharmaceutical Company Limited, priority 2018, published 2023).

Target: cathepsin X (Mus musculus, UniProt Q9WUU7)
Assay: Probe labeling of RAW264.7 cell lysates, SDS-PAGE in-gel fluorescence
Assay type: biochemical
Design: protein lysates prepared from RAW264.7 cells; host or cells: RAW264.7
Conditions: Example 6; 0.01-5 µM for 20 minutes
Description: ells were harvested by scraping, washed once with PBS, and resuspended in lysis buffer containing 50 mM citrate [pH 5.5], 0.5% CHAPS, 0.1% Triton X-100, and 4 mM DTT. Cells were incubated on ice for at least 10 minutes with intermittent vortexing followed by centrifugation ([…] at 4° C. or 5 minutes). Cleared supernatants were then transferred to a fresh tube and protein concentration was determined by BCA. Total protein (50 µg) was aliquoted into tubes in a final volume of 20 µl lysis buffer. Where indicated, JPM-OEt or MDV-590 were added from a 100x DMSO stock and incubated at 37° C. or 20 minutes prior to probe addition. The indicated concentration of probe was added from a 100x DMSO stock. Labeling was carried out at 37° C. or 20 minutes (unless otherwise indicated), and the reactions were quenched by the addition of 5x sample buffer (200 mM Tris-Cl [pH 6.8], 8% SDS, 0.04% bromophenol blue, 5% b-mercaptoethanol, and 40% glycerol). Samples were then boiled for five minutes and proteins were resolved on a 15% SDS-PAGE gel. The gels were scanned on a Typhoon 5 flatbed laser scanner at 633/670 nm excitation/emission to detect sCy5 fluorescence.
robe-labeled lysate from above (in sample buffer) was divided into input or pulldown (~50 µg total protein each). The input sample was stored at -20° C. The pulldown sample was diluted in 500 µl IP buffer (PBS [pH 7.4],[…], 1 mM EDTA). Goat anti-cathepsin X antibody (10 µl) was added along with 40 µl slurry of pre-washed Protein A/G agarose beads. Samples were rotated overnight at 4° C. Beads were then washed four times with IP buffer followed by a final wash in 0.9% NaCl. Beads were then resuspended in 2x sample buffer and boiled. The pulldown supernatants, alongside the input samples, were analysed by fluorescent SDS-PAGE as above.
In Example 3, the sulfoxonium ylide probe sCy5-Val-SY was incubated with protein lysates prepared from RAW264.7 cells, an immortalized mouse macrophage line that contains high levels of active cysteine cathepsins (Verdoes et al., 2013). Cells were lysed in citrate buffer (pH 5.5) to provide optimal conditions for cathepsin activation, and the probe was added • at 1 µM for 20 minutes • at various concentrations (0 µM, 0.01 µM, 0.05 µM, 0.1 µM, 0.5 µM or 1 µM) for 20 minutes; or • at 1 µM for varying times (0, 1, 2, 5, 10, 20, and 30 minutes).
Then the lysates were resolved by SDS-PAGE and the gel scanned for sCy5 fluorescence using a flatbed laser scanner.
The labeling profile of sCy5-Val-SY was compared to that of BMV109, the pan-cathepsin probe, by repeating the above experiment using BMV109 as the probe added at 1 µM for 20 minutes.
In Example 6, a small library of sulfoxonium ylide probes with varying amino acids in the P1 position as prepared in accordance with Example 1 was tested in RAW264.7 lysates, and compared to BMV109. Each probe was added with increasing probe concentrations of 0.01 µM, 0.05 µM, 0.1 µM, 0.5 µM, 1 µM and 5 µM for 20 minutes).

Sequence of cathepsin X (Q9WUU7 64-306): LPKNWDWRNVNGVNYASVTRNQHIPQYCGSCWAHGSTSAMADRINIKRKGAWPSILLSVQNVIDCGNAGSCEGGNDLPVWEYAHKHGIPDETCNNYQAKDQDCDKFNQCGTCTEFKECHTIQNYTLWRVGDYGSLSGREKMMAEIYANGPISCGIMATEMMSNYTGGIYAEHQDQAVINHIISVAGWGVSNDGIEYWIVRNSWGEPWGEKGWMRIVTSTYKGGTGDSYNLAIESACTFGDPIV

## CCCC[C@H](NC(=O)CCCCCN1/C(=C/C=C/C=C/C2=[N+](CC)c3ccc(S(=O)(=O)[O-])cc3C2(C)C)C(C)(C)c2cc(S(=O)(=O)O)ccc21)C(=O)C=S(C)(C)=O [sCy5-Nle-SY]
  potency of labeling in RAW264.7 lysates: the most potent
